SMILES strings stand for the structures.

We go through one compound from US8883199B2, “Administration regime for N-hydroxy-4-{2-[3-(N,N-dimethylaminomethyl)benzofuran-2-ylcarbonylamino]ethoxy}benzamide” (priority 2011, dated 2014).

The test system of series [1] is patients with solid tumours. The series is described as follows: Clinical Study 1: toxicity and efficacy in monotherapy, two p.o. administration regimes. Here is the method: A clinical study was set up to test the toxicity and efficacy of N-hydroxy-4-{2-[3-(N,N-dimethylaminomethyl)benzofuran-2-ylcarbonylamino]ethoxy}benzamide hydrochloride. 36 patients with solid tumours were included and treated in this study. A first administration regime was tested over a cycle of three weeks, with 14 consecutive days of 2 p.o. administrations 4 hours apart, followed by a week without treatment. Four dosage levels were successively tested from 30 to 75 mg/m^2 (expressed as a salt) twice daily. The acceptability of the various N-hydroxy-4-{2-[3-(N,N-dimethylaminomethyl)-benzofuran-2-ylcarbonylamino]ethoxy}benzamide dose levels were evaluated (especially, haematological toxicities) at the end of the first cycle.
This cycle can be repeated as many times as necessary for treatment of the cancer.

Series [2] concerns histone deacetylase (HDAC). As to conditions: cited from earlier work.
A further series deals with cultured tumour cells. As to conditions: cultured tumour cells in vitro; cited from earlier work.
In a further series the test system is xenograft models. As to conditions: in vivo; cited from earlier work.

As to `CN(C)Cc1c(C(=O)NCCOc2ccc(C(=O)NO)cc2)oc2ccccc12` [N-hydroxy-4-{2-[3-(N,N-dimethylaminomethyl)benzofuran-2-ylcarbonylamino]ethoxy}benzamide], the maximum tolerated dose in series [1] (first regime: 14 consecutive days of 2 p.o. administrations 4 hours apart, then a week without treatment, hydrochloride, dose expressed as a salt, 36 patients with solid tumours) is recorded as 75 mg/m^2 twice daily. Moreover, in series [1] (human, in vivo), the “platelet toxicity, second regime compared with first regime” value is given as “less platelet toxicity than the previous regime” and the reversibility of thrombopenias result is reported as “reversible”. In series [1] (human, in vivo, 3 weeks), the “toxicities which limited increasing the dose” value is “grade 4 thrombopenias”. The compound further came in with a recommended dose in series [1] (human, in vivo, po, 3 weeks) of 90 mg/m^2 twice daily. Further, the maximum tolerated dose in series [1] (second regime: 4 consecutive days of 2 p.o. administrations 4 hours apart, then 3 days without treatment, each of the 3 weeks of a cycle) came out at 105 mg/m^2 twice daily. Also, in series [2], the “histone deacetylase (HDAC) inhibition” value is “powerful”. In the series on cultured tumour cells, the apoptosis result is given as “induces apoptosis” and the cell growth entry is “inhibition of cell growth”. Also, the tumour growth result with xenograft models was “inhibits tumour growth”.
